Measured values as given in patent US20240261297A1, “ANTI-CDK INHIBITORS FOR CANCER TREATMENT” (St. John's Cancer Institute, priority 2021, published 2024).
Read-outs that look alike come from different tables or passages of the source. One block for each compound: values may come before it.

Assays:
[1] = Snapshot plasma pharmacokinetics in mice; type: in vivo
Protocol: Evaluation of pharmacokinetic (PK) parameters and efficacy of I-3 in a xenograft model was carried out in mice. […] Briefly, mice were treated with 5 mg/kg of 1-3 or merioline-3. Plasma was then collected at different time points and measured for drug concentration. […] PK parameters of I-3 was also compared to a panel of CDK inhibitors (Table 13). […] Likewise, Ribociclib has a better Cmax than I-3, but it is primarily a CDK4/6 inhibitor.

CDK1/cyclin B = CDK1/cyclin B (Homo sapiens, UniProt P06493); assay: Radioisotope-based protein kinase assay; type: biochemical; conditions: 10 μM ATP, 3-fold dilution from 10 μM
Sequence of CDK1/cyclin B (P06493 whole entry, canonical isoform): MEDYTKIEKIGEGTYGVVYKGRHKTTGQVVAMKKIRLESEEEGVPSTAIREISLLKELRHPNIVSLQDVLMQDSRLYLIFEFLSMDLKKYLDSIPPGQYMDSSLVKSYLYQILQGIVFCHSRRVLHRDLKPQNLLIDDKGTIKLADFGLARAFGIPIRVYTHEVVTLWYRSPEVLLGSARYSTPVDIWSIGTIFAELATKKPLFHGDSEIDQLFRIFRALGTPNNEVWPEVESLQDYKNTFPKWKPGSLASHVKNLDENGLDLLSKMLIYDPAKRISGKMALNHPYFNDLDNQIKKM
Sequence of CDK1/cyclin B (P14635 whole entry partner, canonical isoform): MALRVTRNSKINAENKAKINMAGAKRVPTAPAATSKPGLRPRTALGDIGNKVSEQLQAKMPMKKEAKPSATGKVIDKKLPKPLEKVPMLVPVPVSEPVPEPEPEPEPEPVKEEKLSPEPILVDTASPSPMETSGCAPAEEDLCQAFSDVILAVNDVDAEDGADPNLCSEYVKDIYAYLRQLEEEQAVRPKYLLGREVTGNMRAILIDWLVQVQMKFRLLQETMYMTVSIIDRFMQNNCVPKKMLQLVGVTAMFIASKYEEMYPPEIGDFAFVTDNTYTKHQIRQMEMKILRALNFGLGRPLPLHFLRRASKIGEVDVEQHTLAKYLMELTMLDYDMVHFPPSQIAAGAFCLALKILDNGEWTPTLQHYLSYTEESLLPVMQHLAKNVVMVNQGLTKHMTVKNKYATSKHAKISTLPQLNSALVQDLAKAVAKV
Protocol: (§1) A series of test compounds were selected for initial screening against CDK isoforms. Protein kinase assays were performed with gold standard radioisotope-based assay formats to measuring enzyme activity remaining in presence and absence of inhibitor.

CDK2/cyclin E = CDK2/cyclin E (Homo sapiens, UniProt P24941); assay: Radioisotope-based protein kinase assay; type: biochemical; conditions: 10 μM ATP, 3-fold dilution from 10 μM
Protocol: as §1

CDK4/cyclin D1 = CDK4/cyclin D1 (Homo sapiens, UniProt P11802); assay: Radioisotope-based protein kinase assay; type: biochemical; conditions: 10 μM ATP, 3-fold dilution from 10 μM
Sequence of CDK4/cyclin D1 (P11802 whole entry): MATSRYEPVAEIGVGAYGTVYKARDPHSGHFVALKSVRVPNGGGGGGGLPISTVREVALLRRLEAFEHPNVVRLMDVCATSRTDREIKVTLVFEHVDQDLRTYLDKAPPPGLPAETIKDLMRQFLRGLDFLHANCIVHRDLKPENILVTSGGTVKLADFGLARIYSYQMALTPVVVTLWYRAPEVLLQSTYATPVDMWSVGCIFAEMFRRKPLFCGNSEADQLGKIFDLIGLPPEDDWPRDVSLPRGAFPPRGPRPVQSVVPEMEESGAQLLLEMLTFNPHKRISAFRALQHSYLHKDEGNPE
Sequence of CDK4/cyclin D1 (P24385 whole entry partner): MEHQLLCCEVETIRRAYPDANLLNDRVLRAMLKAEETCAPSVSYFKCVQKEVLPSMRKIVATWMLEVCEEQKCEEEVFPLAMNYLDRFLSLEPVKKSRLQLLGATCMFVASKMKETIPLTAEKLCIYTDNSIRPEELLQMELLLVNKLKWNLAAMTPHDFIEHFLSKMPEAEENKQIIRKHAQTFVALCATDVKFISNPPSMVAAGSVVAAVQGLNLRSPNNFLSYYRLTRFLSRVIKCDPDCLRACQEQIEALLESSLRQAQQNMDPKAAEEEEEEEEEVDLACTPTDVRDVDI
Protocol: as §1

MDA-MB-468 = assay: Cell viability in breast cancer cell lines; type: cell-based; conditions: MDA-MB-468, 72 hours, Table 6, read-out: Cell viability by CellTiter Glo IC50
Source text: (§2) Tables 5 and 6 show assessment of in vitro efficacy of I-3 in a panel of breast cancer cell lines.

MCF-10A = assay: Cell viability in breast cell lines; type: cell-based; conditions: MCF-10A, 72 hours, Table 6, read-out: Cell viability by CellTiter Glo IC50
Source text: as §2

CDK1/cyclin A = CDK1/cyclin A (Homo sapiens, UniProt P06493); assay: Radioisotope-based protein kinase assay; type: biochemical; conditions: 10 μM ATP, 3-fold dilution from 10 μM
Protocol: as §1

CDK2/cyclin A = CDK2/cyclin A (Homo sapiens, UniProt P24941); assay: Radioisotope-based protein kinase assay; type: biochemical; conditions: 10 μM ATP, 3-fold dilution from 10 μM
Protocol: as §1

CDK6/cyclin D1 = CDK6/cyclin D1 (Homo sapiens, UniProt Q00534); assay: Radioisotope-based protein kinase assay; type: biochemical; conditions: 10 μM ATP, 3-fold dilution from 10 μM
Sequence of CDK6/cyclin D1 (Q00534 whole entry): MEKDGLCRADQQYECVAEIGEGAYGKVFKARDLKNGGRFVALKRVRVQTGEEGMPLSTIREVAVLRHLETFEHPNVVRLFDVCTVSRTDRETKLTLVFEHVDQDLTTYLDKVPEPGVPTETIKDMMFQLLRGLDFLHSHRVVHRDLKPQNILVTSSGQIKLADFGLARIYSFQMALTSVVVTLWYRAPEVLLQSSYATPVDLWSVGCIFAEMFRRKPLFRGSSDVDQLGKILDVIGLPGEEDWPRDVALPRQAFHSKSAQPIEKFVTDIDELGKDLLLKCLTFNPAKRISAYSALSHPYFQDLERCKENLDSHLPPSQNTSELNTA
Sequence of CDK6/cyclin D1 (P24385 whole entry partner): as the sequence (P24385 whole entry partner) above
Protocol: as §1

CDK7/cyclin H = CDK7/cyclin H (Homo sapiens, UniProt P50613); assay: Radioisotope-based protein kinase assay; type: biochemical; conditions: 10 μM ATP, 3-fold dilution from 10 μM
Sequence of CDK7/cyclin H (P50613 whole entry): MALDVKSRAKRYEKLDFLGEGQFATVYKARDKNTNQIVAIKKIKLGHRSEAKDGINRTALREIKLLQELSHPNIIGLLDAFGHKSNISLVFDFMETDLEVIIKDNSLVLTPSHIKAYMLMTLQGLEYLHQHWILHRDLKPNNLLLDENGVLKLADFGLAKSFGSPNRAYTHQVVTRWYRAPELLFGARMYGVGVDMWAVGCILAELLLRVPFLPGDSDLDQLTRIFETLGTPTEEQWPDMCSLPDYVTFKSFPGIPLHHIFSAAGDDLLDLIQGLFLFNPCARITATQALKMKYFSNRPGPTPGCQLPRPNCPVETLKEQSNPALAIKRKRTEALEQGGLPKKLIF
Sequence of CDK7/cyclin H (P51946 whole entry partner): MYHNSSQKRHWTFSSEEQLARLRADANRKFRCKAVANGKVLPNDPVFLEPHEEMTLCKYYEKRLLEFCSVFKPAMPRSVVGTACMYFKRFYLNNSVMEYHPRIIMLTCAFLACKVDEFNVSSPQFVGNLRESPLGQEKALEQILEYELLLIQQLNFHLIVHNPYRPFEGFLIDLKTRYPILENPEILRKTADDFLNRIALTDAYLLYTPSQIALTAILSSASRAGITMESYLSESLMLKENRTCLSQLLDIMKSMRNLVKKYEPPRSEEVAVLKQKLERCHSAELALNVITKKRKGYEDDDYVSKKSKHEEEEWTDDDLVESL
Sequence of CDK7/cyclin H (P51948 whole entry partner): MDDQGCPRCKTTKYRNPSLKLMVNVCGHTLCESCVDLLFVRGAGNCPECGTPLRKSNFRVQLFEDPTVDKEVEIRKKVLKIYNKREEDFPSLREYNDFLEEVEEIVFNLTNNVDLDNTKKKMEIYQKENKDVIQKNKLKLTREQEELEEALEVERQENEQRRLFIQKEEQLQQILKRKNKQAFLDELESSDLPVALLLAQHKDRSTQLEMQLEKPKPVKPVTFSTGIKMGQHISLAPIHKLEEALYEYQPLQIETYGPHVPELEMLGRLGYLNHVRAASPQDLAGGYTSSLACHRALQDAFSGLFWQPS
Protocol: as §1

CDK9/cyclin T1 = CDK9/cyclin T1 (Homo sapiens, UniProt P50750); assay: Radioisotope-based protein kinase assay; type: biochemical; conditions: 10 μM ATP, 3-fold dilution from 10 μM
Sequence of CDK9/cyclin T1 (P50750 whole entry): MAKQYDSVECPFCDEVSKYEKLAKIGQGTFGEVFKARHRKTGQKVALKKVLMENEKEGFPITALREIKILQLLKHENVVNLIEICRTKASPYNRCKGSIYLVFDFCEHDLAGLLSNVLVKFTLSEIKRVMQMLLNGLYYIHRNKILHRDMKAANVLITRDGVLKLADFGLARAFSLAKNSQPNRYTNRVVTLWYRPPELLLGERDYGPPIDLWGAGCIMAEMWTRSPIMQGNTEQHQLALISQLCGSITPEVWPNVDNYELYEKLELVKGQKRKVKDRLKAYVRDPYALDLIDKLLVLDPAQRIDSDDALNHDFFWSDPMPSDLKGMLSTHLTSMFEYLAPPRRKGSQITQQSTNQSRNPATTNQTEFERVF
Sequence of CDK9/cyclin T1 (O60563 whole entry partner): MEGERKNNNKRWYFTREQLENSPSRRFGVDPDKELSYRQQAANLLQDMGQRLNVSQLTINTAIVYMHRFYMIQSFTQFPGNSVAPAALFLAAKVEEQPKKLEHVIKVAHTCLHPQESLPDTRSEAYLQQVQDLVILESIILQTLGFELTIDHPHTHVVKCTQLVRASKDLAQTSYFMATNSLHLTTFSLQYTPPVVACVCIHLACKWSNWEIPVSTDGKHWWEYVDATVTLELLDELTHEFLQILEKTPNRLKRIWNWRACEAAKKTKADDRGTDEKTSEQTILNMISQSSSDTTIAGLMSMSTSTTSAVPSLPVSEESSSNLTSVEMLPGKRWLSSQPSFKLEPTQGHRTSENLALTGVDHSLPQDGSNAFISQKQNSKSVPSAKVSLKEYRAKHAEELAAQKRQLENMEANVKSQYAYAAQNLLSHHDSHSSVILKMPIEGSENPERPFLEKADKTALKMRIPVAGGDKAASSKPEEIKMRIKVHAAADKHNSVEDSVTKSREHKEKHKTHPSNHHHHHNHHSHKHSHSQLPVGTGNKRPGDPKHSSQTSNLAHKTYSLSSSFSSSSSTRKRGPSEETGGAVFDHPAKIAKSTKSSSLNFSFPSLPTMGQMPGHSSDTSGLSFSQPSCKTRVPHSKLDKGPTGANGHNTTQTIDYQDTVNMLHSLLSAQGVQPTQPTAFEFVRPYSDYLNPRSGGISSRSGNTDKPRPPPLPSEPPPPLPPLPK
Protocol: as §1

CKD9/Cyclin H = CKD9/Cyclin H (Homo sapiens, UniProt P50750); assay: Biochemical profile against CDKs and binding partners (Table 3)
Sequence of CKD9/Cyclin H (P50750 whole entry): as the sequence (P50750 whole entry) above
Protocol: as §1

[2] = system: caspase 3/7 in MDA-MB-468 cells; assay: Caspase Glo 3/7 activity assay in MDA-MB-468 cells; type: cell-based; conditions: 24 hours
Protocol: Further anti-proliferative effect of 1-3 was evaluated in the TNBC cell line MDA-MB-468 based on biomarker (CDK2) inhibition. […] The mechanistic cell cycle block is aligned with biomarker. In addition, Caspase Glo 3/7 activation was tested to confirm the sub-G1 (apoptotic) arrest in cell cycle.

PLC/PRF/5 cells = assay: Cell viability of HCC cells by CellTiter Glo assay; type: cell-based; conditions: 72 hours
Protocol: FIG. 5 is a graph showing cell viability of hepatocellular carcinoma (HCC) cell lines treated with I-3 for 72 hours, assessed by CellTiter Glo assay, with the control level of cells considered 100%.
I-3 was also tested for efficacy on hepatocellular carcinoma (HCC) cell lines. Cell viability was measured by CellTiter Glo assay (FIG. 5 and Table 8).

[3] = system: caspase 3/7 in PLC/PRF/5 cells; assay: Caspase Glo 3/7 activity assay in PLC/PRF/5 cells; type: cell-based
CDK5/p35 = CDK5/p35 (Homo sapiens, UniProt Q00535); assay: Radioisotope-based protein kinase assay; type: biochemical; conditions: Table 2
Sequence of CDK5/p35 (Q00535 whole entry): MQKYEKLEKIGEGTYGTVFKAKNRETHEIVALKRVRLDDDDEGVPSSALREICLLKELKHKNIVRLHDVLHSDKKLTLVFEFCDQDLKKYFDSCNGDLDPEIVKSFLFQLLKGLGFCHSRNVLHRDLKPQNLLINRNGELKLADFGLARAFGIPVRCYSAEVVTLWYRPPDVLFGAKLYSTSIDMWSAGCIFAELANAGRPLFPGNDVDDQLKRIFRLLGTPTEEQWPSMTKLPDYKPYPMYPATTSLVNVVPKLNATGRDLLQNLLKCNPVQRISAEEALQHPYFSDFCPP
Sequence of CDK5/p35 (Q15078 whole entry partner): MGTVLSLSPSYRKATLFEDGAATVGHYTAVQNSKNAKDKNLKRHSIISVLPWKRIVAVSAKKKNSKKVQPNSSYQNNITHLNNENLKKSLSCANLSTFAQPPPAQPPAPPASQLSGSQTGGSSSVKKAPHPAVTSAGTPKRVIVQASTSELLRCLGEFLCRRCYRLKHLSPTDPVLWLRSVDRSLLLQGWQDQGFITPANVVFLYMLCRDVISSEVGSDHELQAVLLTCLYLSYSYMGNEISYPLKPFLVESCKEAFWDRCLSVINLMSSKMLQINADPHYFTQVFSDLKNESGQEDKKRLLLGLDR
Protocol: as §1
The activity of compound I-3 was compared to that of a panel of CDKs and their respective binding partners (Tables 2 and 3).

[4] = PO 5 mg/kg, cassette dosing, plasma

Tmax ([1]; mouse, in vivo): 5.5 h
AUC(0-inf) ([1]; mouse, in vivo, AUCinf): 613 ng·h/mL
Cmax ([1]; mouse, in vivo, Cmax): 107 ng/mL
Compound: CCN1CCN(Cc2ccc(Nc3ncc(F)c(-c4cc(F)c5nc(C)n(C(C)C)c5c4)n3)nc2)CC1 [Abemaciclib]

Compound: CC[C@H](Nc1nc(NCc2cnc(C)cc2C)c2ncn(C(C)C)c2n1)[C@@H](C)O [CYC065, reference compound]
IC50 (CDK1/cyclin B): 578 nM
IC50 (CDK2/cyclin E): 5 nM
IC50 (CDK4/cyclin D1): 21 nM
IC50 (MDA-MB-468; Homo sapiens): 380 nM
IC50 (MCF-10A; Homo sapiens): 400 nM

IC50 (CDK1/cyclin A): 3 nM
IC50 (CDK1/cyclin B): 4 nM
IC50 (CDK2/cyclin A): 3 nM
IC50 (CDK2/cyclin E): 2 nM
IC50 (CDK4/cyclin D1): 259 nM
IC50 (CDK6/cyclin D1): 138 nM
Compound: Nc1nccc(-c2c[nH]c3nccc(Oc4ccccc4)c23)n1 [I-1, 4-(4-phenoxy-1H-pyrrolo[2,3-b]pyridin-3-yl)pyrimidin-2-amine]

IC50 (CDK1/cyclin A): 11 nM
IC50 (CDK1/cyclin B): 16 nM
IC50 (CDK2/cyclin A): 9 nM
IC50 (CDK2/cyclin E): 8 nM
IC50 (CDK4/cyclin D1): 875 nM
IC50 (CDK6/cyclin D1): 819 nM
Compound: Nc1nccc(-c2c[nH]c3nccc(Oc4cccc(Cl)c4)c23)n1 [I-2, 4-(4-(3-chlorophenoxy)-1H-pyrrolo[2,3-b]pyridin-3-yl)pyrimidin-2-amine]

IC50 (CDK1/cyclin B): 7 nM
IC50 (CDK2/cyclin E): 2 nM
IC50 (CDK4/cyclin D1): 462 nM
Compound: Nc1nccc(-c2c[nH]c3nccc(Oc4cc(F)cc(F)c4)c23)n1 [I-4, 4-(4-(3,5-difluorophenoxy)-1H-pyrrolo[2,3-b]pyridin-3-yl)pyrimidin-2-amine]

IC50 (CDK2/cyclin E): 27 nM
IC50 (CDK7/cyclin H): 43 nM
IC50 (CDK9/cyclin T1): 16 nM
Compound: Nc1nccc(-c2c[nH]c3nccc(Oc4cccc(C(F)(F)F)c4)c23)n1 [I-5, 4-(4-(3-(trifluoromethyl)phenoxy)-1H-pyrrolo[2,3-b]pyridin-3-yl)pyrimidin-2-amine]

IC50 (CDK1/cyclin A): 4 nM
IC50 (CDK2/cyclin A): 5 nM
IC50 (CDK6/cyclin D1): 196 nM
IC50 (CDK9/cyclin T1): 3 nM
Compound: Nc1nccc(-c2c[nH]c3nccc(Oc4ccc(F)cc4)c23)n1 [I-6, 4-(4-(4-fluorophenoxy)-1H-pyrrolo[2,3-b]pyridin-3-yl)pyrimidin-2-amine]

Compound: CNC(=O)c1nn(C)c2c1C(C)(C)Cc1cnc(Nc3ccc(N4CCN(C)CC4)cc3)nc1-2 [Milciclib]
IC50 (CDK1/cyclin B): 398 nM
IC50 (CDK2/cyclin E): 363 nM
Tmax ([1]; mouse, in vivo): 3.5 h
AUC(0-inf) ([1]; mouse, in vivo, AUCinf): 2980 ng·h/mL
Cmax ([1]; mouse, in vivo, Cmax): 537 ng/mL

Compound: C[C@@]1(O)CCC[C@H]1n1c(=O)c(C(F)F)cc2cnc(NC3CCN(S(C)(=O)=O)CC3)nc21 [PF-06873600, reference compound]
IC50 (CKD9/Cyclin H): 43 nM
IC50 (MDA-MB-468): 65 nM
IC50 (MCF-10A): 660 nM
Caspase 3/7 activation [2]: no caspase 3/7 activation
IC50 [2]: 5660 nM
IC50 (PLC/PRF/5 cells): 3480 nM
IC50 [3]: 3560 nM
Cmax [1, 4]: 196 ng/mL
T1/2 [1, 4]: 2.1 h

AUC(0-inf) ([1]; mouse, plasma, oral, 5 mg/kg, in vivo PK comparison of CDK inhibitors, Table 13, read-out: AUCinf): 641 ng·h/mL
Cmax ([1]; mouse, plasma, oral, 5 mg/kg, in vivo PK comparison of CDK inhibitors, Table 13, read-out: Cmax): 196 ng/mL
Tmax ([1]; mouse, plasma, oral, 5 mg/kg, in vivo PK comparison of CDK inhibitors, Table 13, read-out: Tmax): 2.1 h
Compound: CC(=O)c1c(C)c2cnc(Nc3ccc(N4CCNCC4)cn3)nc2n(C2CCCC2)c1=O [Palbociclib]

Tmax ([1]; mouse, in vivo): 5.7 h
AUC(0-inf) ([1]; mouse, in vivo, AUCinf): 2780 ng·h/mL
Cmax ([1]; mouse, in vivo, Cmax): 303 ng/mL
Compound: CN(C)C(=O)c1cc2cnc(Nc3ccc(N4CCNCC4)cn3)nc2n1C1CCCC1 [Ribociclib]

IC50 (PLC/PRF/5 cells; Homo sapiens): 6300 nM
Compound: CNC(=O)c1cc(Oc2ccc(NC(=O)Nc3ccc(Cl)c(C(F)(F)F)c3)cc2)ccn1 [Sorafenib]

IC50 (CDK1/cyclin A): 5 nM
IC50 (CDK1/cyclin B): 7 nM
IC50 (CDK2/cyclin A): 3 nM
IC50 (CDK2/cyclin E): 2 nM
IC50 (CDK4/cyclin D1): 182 nM
IC50 (CDK6/cyclin D1): 130 nM
IC50 (CDK9/cyclin T1): 2 nM
IC50 (CDK5/p35): 3 nM
IC50 (CKD9/Cyclin H): 2 nM
Cmax [1, 4]: 178 ng/mL
AUCinf ([1]; mice, IV 5 mg/kg, plasma): 83,600 min*ng/mL
Cmax ([1]; mice, IV 5 mg/kg, plasma): 5560 ng/mL
T1/2 ([1]; mice, IV 5 mg/kg, plasma): 0.124 h
Tmax ([1]; mice, IV 5 mg/kg, plasma): 0.0833 h
AUCinf ([1]; mice, PO 5 mg/kg, plasma): 4340 ng·min/mL
Cmax ([1]; mice, PO 5 mg/kg, plasma): 483 ng/mL
Tmax ([1]; mice, PO 5 mg/kg, plasma): 1 h
Compound: Merioline-3
